{"source": "paper PMC2752052", "about": "(Analytical biochemistry, 2009)", "target": "T1, Sirt1 (Homo sapiens, UniProt Q96EB6)", "T1 sequence (Q96EB6 2-747)": "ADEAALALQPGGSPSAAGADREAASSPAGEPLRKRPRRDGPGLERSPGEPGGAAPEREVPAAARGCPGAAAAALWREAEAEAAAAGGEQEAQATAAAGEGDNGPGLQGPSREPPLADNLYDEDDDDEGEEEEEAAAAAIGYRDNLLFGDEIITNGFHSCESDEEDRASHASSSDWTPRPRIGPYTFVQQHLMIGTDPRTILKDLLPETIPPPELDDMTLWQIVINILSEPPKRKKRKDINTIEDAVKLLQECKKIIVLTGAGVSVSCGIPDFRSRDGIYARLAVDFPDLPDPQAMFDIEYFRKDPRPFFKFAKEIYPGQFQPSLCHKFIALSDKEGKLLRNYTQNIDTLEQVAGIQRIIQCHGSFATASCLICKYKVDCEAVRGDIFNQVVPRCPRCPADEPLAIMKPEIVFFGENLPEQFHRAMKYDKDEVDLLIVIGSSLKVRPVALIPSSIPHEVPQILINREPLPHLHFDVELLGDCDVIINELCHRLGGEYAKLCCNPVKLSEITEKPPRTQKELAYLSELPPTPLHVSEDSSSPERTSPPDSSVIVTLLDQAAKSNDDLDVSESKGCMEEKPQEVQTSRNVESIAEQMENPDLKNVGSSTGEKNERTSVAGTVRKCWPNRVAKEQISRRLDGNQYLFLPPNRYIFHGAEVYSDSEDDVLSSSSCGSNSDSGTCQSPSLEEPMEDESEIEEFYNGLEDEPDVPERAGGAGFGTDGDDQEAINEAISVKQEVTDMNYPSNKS", "experiment": "nicotinamidase/glutamate dehydrogenase coupled assay", "type": "biochemical"}
{"smiles": "Nc1ncnc2c1ncn2[C@@H]1O[C@H](COP(=O)(O)OP(=O)(O)OC[C@H]2OC(O)[C@H](O)[C@@H]2O)[C@@H](O)[C@H]1O", "note": "(stereo partly shown) [ADP-ribose]", "values": [{"measurement": "IC50", "value": "77 ± 4", "unit": "µM"}]}
